Measured values reported in ChEMBL document CHEMBL5291721, “A preclinical secondary pharmacology resource illuminates target-adverse drug reaction associations of marketed drugs” (Nat Commun, 2023).
Where “and” joins values, the source holds several entries; their conditions need not be identical. Identical values can stand only once.

Assays:
[1] = biological target: T1, 5-hydroxytryptamine receptor 2C (Homo sapiens, UniProt P28335)
T1 sequence (P28335 whole entry): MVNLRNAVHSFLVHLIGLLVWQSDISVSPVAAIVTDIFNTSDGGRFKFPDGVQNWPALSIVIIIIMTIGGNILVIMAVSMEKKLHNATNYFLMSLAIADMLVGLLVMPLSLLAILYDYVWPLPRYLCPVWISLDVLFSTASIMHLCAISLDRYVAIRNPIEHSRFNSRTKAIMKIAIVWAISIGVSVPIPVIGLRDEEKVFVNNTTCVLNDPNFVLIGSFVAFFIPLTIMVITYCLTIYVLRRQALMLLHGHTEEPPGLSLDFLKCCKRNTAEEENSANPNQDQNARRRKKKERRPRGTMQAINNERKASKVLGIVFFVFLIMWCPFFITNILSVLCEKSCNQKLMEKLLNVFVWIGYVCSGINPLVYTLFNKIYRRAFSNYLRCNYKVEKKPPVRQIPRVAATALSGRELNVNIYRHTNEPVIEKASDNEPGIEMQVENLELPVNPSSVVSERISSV

Vasopressin V2 receptor = Vasopressin V2 receptor (Homo sapiens, UniProt P30518)
[2] = biological target: Voltage-gated inwardly rectifying potassium channel KCNH2 (Homo sapiens, UniProt Q12809); format: functional
[3] = biological target: Glutamate receptor ionotropic, NMDA 1 (Rattus norvegicus, UniProt P35439)
Thromboxane A2 receptor = biological target: T2, Thromboxane A2 receptor (Homo sapiens, UniProt P21731)
T2 sequence (P21731 whole entry): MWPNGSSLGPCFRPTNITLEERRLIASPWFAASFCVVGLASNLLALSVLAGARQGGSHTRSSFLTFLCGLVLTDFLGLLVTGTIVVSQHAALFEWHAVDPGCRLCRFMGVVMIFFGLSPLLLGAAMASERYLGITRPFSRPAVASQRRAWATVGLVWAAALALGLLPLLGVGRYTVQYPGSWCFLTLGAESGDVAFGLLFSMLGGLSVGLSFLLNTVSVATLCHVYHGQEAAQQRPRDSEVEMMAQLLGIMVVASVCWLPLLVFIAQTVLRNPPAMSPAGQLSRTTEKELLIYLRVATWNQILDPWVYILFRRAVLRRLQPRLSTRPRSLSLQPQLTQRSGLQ

[4] = biological target: T3, Prostaglandin G/H synthase 1 (Rattus norvegicus, UniProt Q63921); format: functional
T3 sequence (Q63921 whole entry): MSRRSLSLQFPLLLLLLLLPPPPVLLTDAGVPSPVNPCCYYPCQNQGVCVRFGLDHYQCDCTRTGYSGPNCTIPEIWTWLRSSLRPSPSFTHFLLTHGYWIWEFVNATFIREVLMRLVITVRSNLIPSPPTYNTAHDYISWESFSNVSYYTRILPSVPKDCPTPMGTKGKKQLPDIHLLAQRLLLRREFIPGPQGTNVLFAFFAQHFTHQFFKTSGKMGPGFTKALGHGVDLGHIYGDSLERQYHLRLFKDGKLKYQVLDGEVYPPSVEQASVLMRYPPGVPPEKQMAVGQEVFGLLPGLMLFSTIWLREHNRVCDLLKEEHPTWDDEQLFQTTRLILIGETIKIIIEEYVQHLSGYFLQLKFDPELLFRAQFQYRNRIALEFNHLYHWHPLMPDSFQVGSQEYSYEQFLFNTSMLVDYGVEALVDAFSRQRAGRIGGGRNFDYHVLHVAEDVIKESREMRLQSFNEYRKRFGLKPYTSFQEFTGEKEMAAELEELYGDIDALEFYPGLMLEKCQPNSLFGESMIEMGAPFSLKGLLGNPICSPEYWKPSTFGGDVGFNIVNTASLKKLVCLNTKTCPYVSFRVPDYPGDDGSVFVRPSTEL

[5] = biological target: T4, Neuropeptide Y receptor type 1 (Homo sapiens, UniProt P25929); settings: read-out: AC50
T4 sequence (P25929 whole entry): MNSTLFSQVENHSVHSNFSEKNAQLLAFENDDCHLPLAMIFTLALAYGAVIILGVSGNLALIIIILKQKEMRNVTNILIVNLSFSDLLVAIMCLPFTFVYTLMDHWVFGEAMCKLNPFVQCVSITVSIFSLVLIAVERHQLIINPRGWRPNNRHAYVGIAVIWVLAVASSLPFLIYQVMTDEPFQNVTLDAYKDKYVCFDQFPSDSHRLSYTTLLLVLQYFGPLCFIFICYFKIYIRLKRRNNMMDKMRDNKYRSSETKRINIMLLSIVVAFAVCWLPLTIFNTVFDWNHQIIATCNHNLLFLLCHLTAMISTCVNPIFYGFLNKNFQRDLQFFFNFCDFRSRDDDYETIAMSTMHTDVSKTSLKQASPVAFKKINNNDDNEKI

Histamine H2 receptor = Histamine H2 receptor (Homo sapiens, UniProt P25021); format: functional, cell-based
Vasopressin V1a receptor = Vasopressin V1a receptor (Homo sapiens, UniProt P37288)
Note: assay procedure not described here.

Sequence of Histamine H2 receptor (P25021 whole entry): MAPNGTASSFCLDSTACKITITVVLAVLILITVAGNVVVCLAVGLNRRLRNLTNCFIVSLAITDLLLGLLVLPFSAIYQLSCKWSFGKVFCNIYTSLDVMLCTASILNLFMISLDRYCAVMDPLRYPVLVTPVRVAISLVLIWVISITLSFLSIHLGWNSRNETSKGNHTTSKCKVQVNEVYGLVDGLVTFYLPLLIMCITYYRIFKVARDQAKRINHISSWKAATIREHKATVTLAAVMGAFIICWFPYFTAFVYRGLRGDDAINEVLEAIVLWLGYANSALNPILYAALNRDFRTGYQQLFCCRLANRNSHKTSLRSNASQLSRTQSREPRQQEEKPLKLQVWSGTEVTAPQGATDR
Sequence of Vasopressin V1a receptor (P37288 whole entry): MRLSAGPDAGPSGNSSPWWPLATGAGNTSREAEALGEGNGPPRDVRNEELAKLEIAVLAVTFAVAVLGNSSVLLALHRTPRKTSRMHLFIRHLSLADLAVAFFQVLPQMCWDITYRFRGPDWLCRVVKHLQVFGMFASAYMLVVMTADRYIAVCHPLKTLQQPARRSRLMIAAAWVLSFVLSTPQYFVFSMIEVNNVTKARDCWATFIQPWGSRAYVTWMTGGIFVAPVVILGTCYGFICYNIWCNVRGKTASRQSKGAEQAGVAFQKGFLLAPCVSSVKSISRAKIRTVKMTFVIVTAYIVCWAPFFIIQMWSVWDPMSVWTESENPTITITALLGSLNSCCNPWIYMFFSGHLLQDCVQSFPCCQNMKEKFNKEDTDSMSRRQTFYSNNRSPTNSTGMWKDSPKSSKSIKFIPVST
Sequence of Voltage-gated inwardly rectifying potassium channel KCNH2 (Q12809 whole entry): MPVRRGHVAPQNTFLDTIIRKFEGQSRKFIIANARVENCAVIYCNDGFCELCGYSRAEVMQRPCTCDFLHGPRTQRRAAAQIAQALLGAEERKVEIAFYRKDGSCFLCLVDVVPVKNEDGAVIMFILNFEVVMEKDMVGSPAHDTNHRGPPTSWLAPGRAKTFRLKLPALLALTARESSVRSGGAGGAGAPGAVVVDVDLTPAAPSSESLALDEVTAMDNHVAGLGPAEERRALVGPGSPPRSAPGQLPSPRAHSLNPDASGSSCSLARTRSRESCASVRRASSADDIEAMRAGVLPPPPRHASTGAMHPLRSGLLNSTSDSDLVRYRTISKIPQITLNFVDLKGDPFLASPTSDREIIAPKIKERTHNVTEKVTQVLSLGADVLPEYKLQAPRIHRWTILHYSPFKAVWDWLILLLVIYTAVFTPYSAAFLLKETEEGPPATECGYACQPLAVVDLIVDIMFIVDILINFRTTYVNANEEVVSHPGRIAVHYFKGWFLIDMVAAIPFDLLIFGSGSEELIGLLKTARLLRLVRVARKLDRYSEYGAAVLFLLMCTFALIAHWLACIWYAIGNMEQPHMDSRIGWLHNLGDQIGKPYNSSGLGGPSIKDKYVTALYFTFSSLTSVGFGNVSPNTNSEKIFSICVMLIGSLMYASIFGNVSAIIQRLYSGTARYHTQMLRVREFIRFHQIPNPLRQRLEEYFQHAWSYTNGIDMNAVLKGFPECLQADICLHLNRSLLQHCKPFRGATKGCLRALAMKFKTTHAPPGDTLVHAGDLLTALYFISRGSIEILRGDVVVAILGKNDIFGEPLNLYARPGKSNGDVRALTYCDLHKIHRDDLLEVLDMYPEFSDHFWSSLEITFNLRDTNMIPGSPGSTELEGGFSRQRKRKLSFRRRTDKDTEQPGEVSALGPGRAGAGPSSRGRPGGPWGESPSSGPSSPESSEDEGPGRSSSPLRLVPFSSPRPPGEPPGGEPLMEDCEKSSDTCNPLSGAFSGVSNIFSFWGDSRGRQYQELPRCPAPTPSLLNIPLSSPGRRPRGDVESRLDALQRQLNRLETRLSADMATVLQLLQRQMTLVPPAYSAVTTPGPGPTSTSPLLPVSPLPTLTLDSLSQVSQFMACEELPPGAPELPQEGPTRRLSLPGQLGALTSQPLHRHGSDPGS
Sequence of Vasopressin V2 receptor (P30518 whole entry): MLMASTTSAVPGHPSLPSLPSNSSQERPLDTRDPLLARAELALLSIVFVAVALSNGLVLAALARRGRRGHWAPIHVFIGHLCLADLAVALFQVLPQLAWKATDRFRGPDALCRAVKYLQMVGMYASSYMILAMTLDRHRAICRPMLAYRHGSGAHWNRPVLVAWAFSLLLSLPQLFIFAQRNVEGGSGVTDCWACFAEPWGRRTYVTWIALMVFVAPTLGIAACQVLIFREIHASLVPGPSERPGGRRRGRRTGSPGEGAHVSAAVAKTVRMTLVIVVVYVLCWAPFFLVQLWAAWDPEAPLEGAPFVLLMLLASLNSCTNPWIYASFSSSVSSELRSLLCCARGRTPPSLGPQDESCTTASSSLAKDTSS

| SMILES | AC50 [1] [µM] | AC50 (Vasopressin V2 receptor) [µM] | AC50 [2] [µM] | AC50 [3] [µM] | AC50 (Thromboxane A2 receptor) | AC50 [4] | AC50 [5] [µM] | AC50 (Histamine H2 receptor) [µM] | AC50 (Vasopressin V1a receptor) [µM] |
| --- | --- | --- | --- | --- | --- | --- | --- | --- | --- |
| CNC1=Nc2ccc(Cl)cc2C(c2ccccc2)=[N+]([O-])C1 [CHLORDIAZEPOXIDE] | > 30 | > 30 | > 30 | > 10 | > 30 µM | > 30 µM | > 30 | > 30 |  |
| CCC[C@H](NC(=O)[C@@H]1[C@H]2CCC[C@H]2CN1C(=O)[C@@H](NC(=O)[C@@H](NC(=O)c1cnccn1)C1CCCCC1)C(C)(C)C)C(=O)C(=O)NC1CC1 | > 30 | > 30 | > 30 | > 10 | > 30 µM | > 30 µM | > 30 |  | > 10 |
| CCCCC1C(=O)N(c2ccccc2)N(c2ccccc2)C1=O [PHENYLBUTAZONE] | > 30 | > 30 | > 30 | > 10 | > 30 µM | > 10 µM | > 30 | > 10 | > 30 |
| CC(CCc1ccc(O)cc1)NCCc1ccc(O)c(O)c1 (stereo not drawn) [DOBUTAMINE] | > 30 | > 30 | 20.3 | > 30 | > 30 µM | 5.31 µM | > 30 | > 10 | > 30 |
| C[C@]12CC[C@@H]3c4ccc(O)cc4C[C@@H](CCCCCCCCC[S+]([O-])CCCC(F)(F)C(F)(F)F)[C@H]3[C@@H]1CC[C@@H]2O (stereo partly drawn) [FULVESTRANT] | > 30 | > 30 | > 30 | > 30 |  | > 30 µM | > 30 | > 30 | > 30 |
| OC1(c2ccc(Cl)cc2)c2ccccc2C2=NCCN21 (stereo not drawn) [MAZINDOL] | > 30 | > 30 | > 30 | > 30 | > 30 µM | > 30 µM | > 30 | > 10 | > 30 |
| CC1OC2(CS1)CN1CCC2CC1 (stereo not drawn) [CEVIMELINE] | > 30 | > 10 | > 30 | > 10 | > 10 µM | > 10 µM | > 10 | > 30 | > 10 |
| Oc1ccc2c(c1)CC[C@H](c1ccccc1)[C@@H]2c1ccc(OCCN2CCCC2)cc1 [LASOFOXIFENE] | 5.3 | 15 | 0.73 | > 30 |  | 5 µM | 25 | > 30 | > 30 |
| C[C@H](Cc1ccc(O)c(O)c1)[C@@H](C)Cc1ccc(O)c(O)c1 [MASOPROCOL] | > 30 | > 10 | > 30 | > 10 | > 10 µM and 29 µM (2×) | 18 µM and 14 µM and 12 µM | > 10 | > 10 | > 10 |
| CC(C)COCC(CN(Cc1ccccc1)c1ccccc1)N1CCCC1 (stereo not drawn) [BEPRIDIL] | > 30 | > 30 |  | > 30 | > 30 µM | > 30 µM | > 30 | > 30 | > 30 |
| C[C@]12CCC(=O)C(O)=C1CC[C@@H]1[C@@H]2CC[C@]2(C)C(=O)CC[C@@H]12 [FORMESTANE] | > 30 | > 30 | > 30 | > 30 | > 30 µM | > 30 µM | > 30 | > 30 | > 30 |
| CCC(C)C1(CC)C(=O)NC(=O)NC1=O (stereo not drawn) [BUTABARBITAL] |  | > 30 | > 30 |  |  | > 30 µM |  | > 30 | > 30 |
| CN(C)CCCNc1c2ccccc2nc2cccc([N+](=O)[O-])c12 [NITRACRINE] | 2.7 | > 30 | 0.46 | > 30 | > 30 µM | > 30 µM | > 30 |  | > 30 |
| CNCc1ccc(-c2[nH]c3cc(F)cc4c3c2CCNC4=O)cc1 [RUCAPARIB] |  | > 30 | 14.1 |  | > 30 µM | > 30 µM | > 30 |  | > 30 |
| Cc1noc(NS(=O)(=O)c2ccc(N)cc2)c1C [SULFISOXAZOLE] | > 30 | > 10 | > 30 | > 10 | > 10 µM | > 10 µM | > 10 | > 10 |  |
| Cc1cc2cc3c(C)cc(=O)oc3c(C)c2o1 [TRIOXSALEN] | > 30 | > 10 | > 30 | > 10 | > 10 µM | > 10 µM | > 10 | > 10 |  |
| C/N=C(\NC)NCc1ccccc1 [BETHANIDINE] | > 10 | > 30 | > 30 | > 30 |  | > 30 µM | > 30 | > 30 | > 30 |
| CC(=O)N[C@@H](CS)C(=O)O [ACETYLCYSTEINE] | > 30 | > 30 | > 30 | > 30 | > 30 µM |  | > 30 | > 30 | > 30 |
| CC(C(=O)O)c1ccc(CC2CCCC2=O)cc1 (stereo not drawn) [LOXOPROFEN] | > 30 | > 30 | > 30 | > 30 | > 30 µM | > 30 µM | > 30 | > 30 |  |
| CCCC(CCC)C(N)=O [VALPROMIDE] | > 30 | > 30 | > 30 | > 10 | > 30 µM | > 30 µM | > 30 | > 10 |  |
| CC12CC3CC(C)(C1)CC(N)(C3)C2 [MEMANTINE] | > 30 | > 30 | > 30 |  | > 30 µM | > 30 µM | > 30 | > 10 | > 30 |
| Clc1ccc(C(Cn2ccnc2)OCc2ccsc2Cl)c(Cl)c1 (stereo not drawn) [TIOCONAZOLE] | > 30 | > 30 |  | > 30 | 28.1 µM | 12.4 µM | > 30 | > 30 | > 30 |
| CCOC(=O)C1=C[C@]2(CC)CCCN3CCc4c(n1c1ccccc41)[C@@H]32 [VINPOCETINE] | > 30 | > 30 |  | > 30 | > 30 µM | > 30 µM | > 30 | > 30 | > 30 |
| CCCCC(=O)O[C@]1(C(=O)CO)[C@@H](C)C[C@H]2[C@@H]3CCC4=CC(=O)C=C[C@]4(C)[C@@]3(F)[C@@H](O)C[C@@]21C [BETAMETHASONE VALERATE] | > 30 | > 30 | > 30 | > 10 | > 30 µM | > 30 µM | > 30 | > 10 |  |
